From PubChem BioAssay (NCI)
“And” between values parts separate entries of the source, which are not always exact repeats. Equal entries are not always repeated.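 Method: 48-hour compound exposure of cells in 96-well plates, five concentrations, linear interpolation of endpoints. GI50 marks 50% less growth. TGI is the concentration that stops growth completely.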

Columns and labels:
Experiment in all cases: NCI anticancer screen, dose series, 48 h
[1] = system: OVCAR-3 ovarian
[2] = system: HCT-15 colon
[3] = system: SK-OV-3 ovarian
[4] = system: M19-MEL melanoma
[5] = system: SN12C renal
[6] = system: LOX IMVI melanoma
[7] = system: KM20L2 colon
[8] = system: NCI-H522 lung
[9] = system: CAKI-1 renal

Row | Compound | TGI [1] | TGI [2] | TGI [3] | TGI [4] | TGI [5] | TGI [6] | TGI [7] | TGI [8] | TGI [9] | GI50 [4] | GI50 [8] | GI50 [1] | GI50 [2] | GI50 [3] | GI50 [5] | GI50 [6] | GI50 [7] | GI50 [9]
1 | CCOC(=O)C1=C(C)N(NC(=O)c2ccccc2)C2(O)CCCC12C(=O)OCC (centres undefined) | > 100 µM | > 100 µM | > 100 µM | > 100 µM | > 100 µM | > 100 µM | > 100 µM | > 100 µM | > 100 µM |  |  |  |  |  |  |  |  | 
2 | Nc1ccn([C@@H]2C=C(CO)[C@@H](O)[C@H]2O)c(=O)n1 | 500 µM and > 625 µM | 483 µM and > 625 µM |  | 244 µM and > 625 µM |  |  | 500 µM and > 625 µM |  | 4.52 µM and 4.16 µM and 22.2 µM | 275 nM | 24.2 nM |  |  |  |  |  |  | 
3 | CSC(=S)NNC(=O)c1ccncc1 | 51.3 µM | 28.3 µM | 96.2 µM | 35.8 µM | 41.4 µM | 33.6 µM | > 100 µM | 31.4 µM | 56.2 µM |  |  |  |  |  |  |  |  | 
4 | O=C1c2ccccc2C(=O)c2nc(-c3ccccc3)c(-c3ccccc3)nc21 | 13.2 µM | > 100 µM | > 100 µM | 2.02 µM | > 100 µM | > 56.1 µM | > 100 µM | > 100 µM | > 100 µM |  |  |  |  |  |  |  |  | 
5 | CCC[CH2][Sn]([CH2]CCC)([S]C1=NCCS1)[S]C1=NCCS1 | 1.87 µM | 1.74 µM | 3.31 µM | 1.45 µM | 1.82 µM | 0.555 µM | 2.88 µM | 0.0562 µM | 0.51 µM | 268 nM | 13.3 nM | 563 nM | 338 nM | 1900 nM | 502 nM | 186 nM | 1350 nM | 92.8 nM
6 | CC1OC(O)CC(OC(=O)c2ccccc2)C1OC(=O)c1ccccc1 (centres undefined) | 33.4 µM | 29.3 µM |  | 31.6 µM | 32.3 µM | 23.1 µM | > 100 µM | > 100 µM | 63.1 µM |  |  |  |  |  |  |  |  | 
7 | O=C(C=Nc1ccccc1C(=O)[O-])c1cccs1.O=C(C=Nc1ccccc1C(=O)[O-])c1cccs1.[Cu+2] | > 100 µM | > 100 µM | > 100 µM | > 100 µM | > 100 µM | > 100 µM | > 100 µM | > 100 µM | > 100 µM | 39700 nM |  |  |  |  |  |  |  | 
8 | CCCCCCCCCC(=O)OCC1OC(n2cc(F)c(=O)[nH]c2=O)C(N)C(OC(=O)CCCCCCCCC)C1O (centres undefined) | 32.7 µM | 34.7 µM | > 100 µM | 31.2 µM | 32.2 µM | 30.1 µM | 34.8 µM | 30.1 µM | > 100 µM |  |  |  |  |  |  |  |  | 
9 | CCC(=C(c1ccc(OCc2ccccc2)cc1)c1ccc(OCc2ccccc2)cc1)c1ccc(OC)cc1 | > 100 µM | > 100 µM | > 100 µM | > 100 µM | > 100 µM | > 100 µM | > 100 µM | > 100 µM | > 100 µM |  |  |  |  |  |  |  |  | 
10 | O=C(CC1(O)C(=O)Nc2c(Cl)cc(Cl)cc21)c1ccc2ccccc2c1 (centres undefined) | 18.6 µM | 14.2 µM | 24.6 µM | 16.3 µM | 22.9 µM | 24.3 µM | 11.4 µM | 10.9 µM | 19.8 µM |  |  |  |  |  |  |  |  | 
11 | C=CCN(N=O)C(=O)N(CCC)CCCCC(NC(C)=O)C(=O)NCc1ccccc1 (centres undefined) | > 100 µM | > 100 µM | > 100 µM | > 100 µM | > 100 µM | > 100 µM | > 100 µM | > 100 µM | > 100 µM |  |  |  |  |  |  |  |  | 
12 | COc1ccc2c(c1)[n+]([O-])c(-c1nc3ccccc3s1)c(N)[n+]2[O-] | > 100 µM | > 100 µM | > 100 µM | > 100 µM | > 100 µM |  | > 100 µM | > 100 µM | > 100 µM |  |  |  |  |  |  |  |  | 
13 | COC(=O)C1=CC2OC1(C)C1(CC1)C2=O (centres undefined) | 31.2 µM | 40 µM | > 100 µM | 51.7 µM | 31 µM | 28.5 µM | 36.6 µM | 20.7 µM | 33.5 µM |  |  |  |  |  |  |  |  | 
14 | COc1ccc(OC)c2cc(C3(C)SCCCS3)ccc12 | > 100 µM | > 100 µM | > 100 µM | > 100 µM | > 100 µM | > 100 µM | > 100 µM |  | > 100 µM |  |  |  |  |  |  |  |  | 
15 | O=C(CC(=O)C(F)(F)F)c1csc2ccccc12 | > 100 µM | > 100 µM | 63.6 µM | > 100 µM | 75.4 µM | > 100 µM | > 100 µM | > 100 µM |  |  |  |  |  |  |  |  |  | 
16 | COC(=O)C1=CC2OC13CC1CCC3(C2=O)C1(C)C (centres undefined) | 20 µM | 18.9 µM | 38.1 µM | 24.5 µM | 26.4 µM |  | 27.1 µM | 9.37 µM | 7.37 µM |  |  |  |  |  |  |  |  | 
17 | Cc1ccc(C2=NO[C@@H]3C(=O)N(c4ccc(Cc5ccc(N6C(=O)[C@H]7C(c8ccc(C)cc8)=NO[C@H]7C6=O)cc5)cc4)C(=O)[C@H]23)cc1 | > 100 µM | > 100 µM | > 100 µM | > 100 µM | > 100 µM | > 100 µM | > 100 µM |  | > 100 µM |  |  |  |  |  |  |  |  | 
18 | CN=S(=O)(C[C@]1(O)CC2OC1C1OC(C)(C)OC21)c1ccccc1 (some centres undefined) | > 100 µM | > 100 µM | > 100 µM | > 100 µM | > 100 µM |  | > 100 µM | > 100 µM | > 100 µM |  |  |  |  |  |  |  |  | 
19 | CC(=O)Nc1ccc(/C=C/C(=O)c2sc(C(N)=S)nc2C)cc1 | > 100 µM | > 100 µM | > 100 µM | > 100 µM | > 100 µM | > 100 µM | > 100 µM | > 100 µM | > 100 µM |  |  |  |  |  |  |  |  | 
20 | COc1ccccc1NC(=O)C1=C(C)NC(C)=C(C(=O)Nc2ccccc2OC)C1c1ccccc1OC | > 100 µM | > 100 µM | > 100 µM | > 100 µM | > 100 µM | > 100 µM | > 100 µM | > 100 µM | > 100 µM |  |  |  |  |  |  |  |  | 
21 | Cc1c(Cl)ccc2c1NC(=O)C2(O)C1Cc2ccccc2C1=O (centres undefined) | > 100 µM | > 100 µM | > 100 µM | > 100 µM | > 100 µM | > 100 µM | > 100 µM | > 100 µM | > 100 µM |  |  |  |  |  |  |  |  | 
22 | CCN(CC)c1ccc2c(c1)N=C1N=CC=CN1C2(c1ccc(N(C)C)cc1)c1ccc(N(C)C)cc1 | 6.54 µM | 28.1 µM | 19.1 µM | 19.3 µM | 19.3 µM | 18.4 µM | 10.2 µM | 5.12 µM | 25.2 µM |  |  |  |  |  |  |  |  | 
